Measured values from the NIST ThermoML archive (doi:10.1021/je200963q).
± gives the expanded uncertainty stated by the source.

Experiment: wn = mass fraction of the nth substance listed
Conditions: 303.15 K, 101.3 kPa, Liquid, w1 = 0.08

viscosity (Capillary tube (Ostwald / Ubbelohde) method): 1.069 ± 0.009 mPa·s | mass density: 996.7 ± 0.4 kg/m3
SMILES: CCCCOCCOCCO [3,6-dioxa-1-decanol] + O
